Experimental data reported in patent US20240051985A1, “METTL3 MODULATORS” (ACCENT THERAPEUTICS, INC., priority 2020, published 2024).

Assays:
METTL3/METTL14 = METTL3/METTL14 (Homo sapiens, UniProt Q86U44); experiment: METTL3-14 standard enzyme assay (3H-SAM flashplate); settings: METTL3 biochemical assay
Protocol: METTL3-14 Standard Enzyme Assay
Assays were performed in a 25 μl-volume in 384-well V-bottom polypropylene microplates (Greiner Bio-One, cat. No. 781280) at ambient temperature. Optimized 1× assay buffer was 20 mM HEPES pH 7.5, 50 mM KCl, 250 μM MgCl2, 1 mM DTT, 0.01% Tween, 0.01% BSG, 0.004 U/μl RNAseOUT (cat. No. 10777019, ThermoFisher Scientific, Waltham, MA). For compound screening METTL3/METTL14 (final concentration, f.c.=2.5 nM) was added using a Multidrop Combi (ThermoFisher Scientific, Waltham, MA) and preincubated for 5 min. Reactions were started by adding 3′ biotinylated RNA (UCUGGACUAAA-biotin) (f.c.=100 nM) and 3H-SAM (f.c.=100 nM) substrates. Reactions proceeded for 30 minutes and were quenched with excess non-radioactive SAM (f.c.=15 μM). The reactions were then transferred to streptavidin-coated flashplates and incubated for 2 hours at 25° C. Following two washing cycles with 0.1% Tween-20, the plates were sealed and read on a TopCount (PerkinElmer, Waltham, MA) plate-based scintillation counter. For determination of kinetic parameters, reaction times were optimized so that measurements were taken during the initial velocity phase of the reaction.

PRMT5-MEP50 = PRMT5-MEP50 (Homo sapiens, UniProt O14744); experiment: PRMT5 assay (3H-SAM flashplate); settings: Table 3; PRMT5 biochemical assay
Protocol: Assays were performed in a 25 μl-volume in 384-well V-bottom polypropylene microplates (Greiner Bio-One, cat. No. 781280) at ambient temperature. Optimized 1× assay buffer was 20 mM Tris-HCl pH 8.0, 1 mM DTT, […]. For compound screening PRMT5-MEP50 (final concentration, f.c.=2.5 nM) was added using a Multidrop Combi (ThermoFisher Scientific, Waltham, MA) and preincubated for 5 min. Reactions were started by adding 3′ biotinylated histone H4 peptide acetylated on serine 1 (Ac-[…]-Biotin) (f.c.=100 nM) and 3H-SAM (f.c.=250 nM) substrates. Reactions proceeded for 60 minutes and were quenched with excess non-radioactive SAM (f.c.=15 μM). The reactions were then transferred to streptavidin-coated flashplates and incubated for 2 hours at 25° C. Following two washing cycles with 0.1% Tween-20, the plates were sealed and read on a TopCount (PerkinElmer, Waltham, MA) plate-based scintillation counter. For determination of kinetic parameters, reaction times were optimized so that measurements were taken during the initial velocity phase of the reaction.

Chain of PRMT5-MEP50 (O14744 whole entry): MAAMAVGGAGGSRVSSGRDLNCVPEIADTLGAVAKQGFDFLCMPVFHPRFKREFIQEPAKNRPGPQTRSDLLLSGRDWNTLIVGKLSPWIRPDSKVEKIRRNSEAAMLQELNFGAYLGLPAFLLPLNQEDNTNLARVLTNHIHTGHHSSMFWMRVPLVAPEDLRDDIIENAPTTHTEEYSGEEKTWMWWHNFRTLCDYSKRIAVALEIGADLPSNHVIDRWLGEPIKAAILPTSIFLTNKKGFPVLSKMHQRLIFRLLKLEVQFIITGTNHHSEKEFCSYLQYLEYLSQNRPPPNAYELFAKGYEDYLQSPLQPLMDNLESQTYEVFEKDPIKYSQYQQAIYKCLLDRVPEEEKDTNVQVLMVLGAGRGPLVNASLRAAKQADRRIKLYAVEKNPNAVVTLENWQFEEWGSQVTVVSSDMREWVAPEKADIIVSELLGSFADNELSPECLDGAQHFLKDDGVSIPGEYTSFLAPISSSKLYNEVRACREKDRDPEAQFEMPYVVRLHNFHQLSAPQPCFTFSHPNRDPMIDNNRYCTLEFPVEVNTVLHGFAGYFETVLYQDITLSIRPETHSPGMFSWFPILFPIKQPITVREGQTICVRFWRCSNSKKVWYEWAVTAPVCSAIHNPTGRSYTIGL
Chain of PRMT5-MEP50 (Q9BQA1 whole entry partner): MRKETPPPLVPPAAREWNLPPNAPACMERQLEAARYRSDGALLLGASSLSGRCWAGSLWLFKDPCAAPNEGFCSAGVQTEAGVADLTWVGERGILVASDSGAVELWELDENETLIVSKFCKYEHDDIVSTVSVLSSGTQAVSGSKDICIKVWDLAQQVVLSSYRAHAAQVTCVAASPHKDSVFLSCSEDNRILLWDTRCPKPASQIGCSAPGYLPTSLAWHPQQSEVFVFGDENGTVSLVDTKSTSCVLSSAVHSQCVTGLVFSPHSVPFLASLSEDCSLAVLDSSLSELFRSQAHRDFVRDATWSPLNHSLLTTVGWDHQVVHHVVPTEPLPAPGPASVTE
Chain of METTL3/METTL14 (Q86U44 whole entry, species assumed): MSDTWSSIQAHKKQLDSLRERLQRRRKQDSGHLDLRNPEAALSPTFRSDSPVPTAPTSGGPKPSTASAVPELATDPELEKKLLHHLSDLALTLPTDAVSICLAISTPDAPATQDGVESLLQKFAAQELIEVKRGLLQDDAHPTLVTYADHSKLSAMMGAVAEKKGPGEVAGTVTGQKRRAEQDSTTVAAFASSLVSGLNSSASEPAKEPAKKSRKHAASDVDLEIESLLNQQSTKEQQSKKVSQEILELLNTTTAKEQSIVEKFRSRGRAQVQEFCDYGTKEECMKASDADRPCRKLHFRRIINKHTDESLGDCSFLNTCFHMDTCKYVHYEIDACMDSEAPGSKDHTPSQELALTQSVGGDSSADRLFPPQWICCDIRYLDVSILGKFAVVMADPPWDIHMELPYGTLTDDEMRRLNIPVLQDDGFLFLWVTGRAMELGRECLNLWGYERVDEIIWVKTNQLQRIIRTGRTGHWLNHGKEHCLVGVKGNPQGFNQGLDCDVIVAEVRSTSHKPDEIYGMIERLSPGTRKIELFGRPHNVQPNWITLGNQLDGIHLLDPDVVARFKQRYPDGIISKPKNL
Chain of METTL3/METTL14 (Q9HCE5 whole entry partner, species assumed): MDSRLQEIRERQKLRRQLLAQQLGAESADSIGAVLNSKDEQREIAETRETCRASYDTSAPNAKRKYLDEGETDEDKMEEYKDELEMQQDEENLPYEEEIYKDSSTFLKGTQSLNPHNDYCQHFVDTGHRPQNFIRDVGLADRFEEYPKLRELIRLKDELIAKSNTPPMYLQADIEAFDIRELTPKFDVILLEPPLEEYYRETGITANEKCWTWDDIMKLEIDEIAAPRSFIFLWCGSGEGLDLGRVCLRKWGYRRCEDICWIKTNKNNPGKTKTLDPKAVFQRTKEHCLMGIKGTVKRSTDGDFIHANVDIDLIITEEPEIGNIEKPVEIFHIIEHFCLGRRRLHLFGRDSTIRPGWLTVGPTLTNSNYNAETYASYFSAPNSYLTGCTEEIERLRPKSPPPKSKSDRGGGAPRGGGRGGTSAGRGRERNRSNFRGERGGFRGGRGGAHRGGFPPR

IC50 (METTL3/METTL14; Table 3) | IC50 (PRMT5-MEP50) | IC50 (METTL3/METTL14; Table 4) | Structure (SMILES)
≥ 1000 nM | ≥ 1000 nM | – | Cn1ccc(-c2cn([C@@H]3O[C@H](C(=O)NC4CCNCC4)[C@@H](O)[C@H]3O)c3ncnc(N)c23)n1 [Compound I-1, (2S,3S,4R,5R)-5-[4-amino-5-(1-methyl-1H-pyrazol-3-yl)-7H-pyrrolo[2,3-d]pyrimidin-7-yl]-3,4-dihydroxy-N-(piperidin-4-yl)oxolane-2-carboxamide]
100 to 1000 nM | 10 to 100 nM | – | Cn1ccc(-c2cn([C@@H]3O[C@H](C(=O)NCC4CCNCC4)[C@@H](O)[C@H]3O)c3ncnc(N)c23)n1 [Compound I-2]
≥ 1000 nM | ≥ 1000 nM | – | COCCNC(=O)[C@H]1O[C@@H](n2cc(-c3ccn(C)n3)c3c(N)ncnc32)[C@H](O)[C@@H]1O [Compound I-3]
≥ 1000 nM | 10 to 100 nM | – | CN(C)CCNC(=O)[C@H]1O[C@@H](n2cc(-c3ccn(C)n3)c3c(N)ncnc32)[C@H](O)[C@@H]1O [Compound I-4]
≥ 1000 nM | ≥ 1000 nM | – | COCCCN(C)C(=O)[C@H]1O[C@@H](n2cc(-c3ccn(C)n3)c3c(N)ncnc32)[C@H](O)[C@@H]1O [Compound I-5]
≥ 1000 nM | < 10 nM | – | COCCN(C(=O)[C@H]1O[C@@H](n2cc(-c3ccn(C)n3)c3c(N)ncnc32)[C@H](O)[C@@H]1O)C1CCNCC1 [Compound I-6]
≥ 1000 nM | 10 to 100 nM | – | COCCCN(C(=O)[C@H]1O[C@@H](n2cc(-c3ccn(C)n3)c3c(N)ncnc32)[C@H](O)[C@@H]1O)C1CCNCC1 [Compound I-7]
100 to 1000 nM | < 10 nM | – | Cn1ccc(-c2cn([C@@H]3O[C@H](C(=O)N(CCCO)C4CCNCC4)[C@@H](O)[C@H]3O)c3ncnc(N)c23)n1 [Compound I-8]
100 to 1000 nM | ≥ 1000 nM | – | Cn1ccc(-c2cn([C@@H]3O[C@H](C(=O)N(CC[C@H](N)C(=O)O)C4CCNCC4)[C@@H](O)[C@H]3O)c3ncnc(N)c23)n1 [Compound I-9]
100 to 1000 nM | 100 to 1000 nM | – | COCCN(C(=O)[C@H]1O[C@@H](n2cc(-c3ccn(C)n3)c3c(N)ncnc32)[C@H](O)[C@@H]1O)c1ccc2ccc(N3CCC3)nc2c1 [Compound I-11]
≥ 1000 nM | ≥ 1000 nM | – | COCCN(C(=O)[C@H]1O[C@@H](n2ccc3c(N)ncnc32)[C@H](O)[C@@H]1O)c1ccc2ccc(N3CCC3)nc2c1 [Compound I-12]
< 10 nM | ≥ 1000 nM | – | Nc1ncnc2c1c(-n1cccn1)cn2[C@H]1C[C@H](O)[C@@H](C(=O)Nc2ccc3ccc(N4CCC4)nc3c2)O1 [Compound I-13]
10 to 100 nM | ≥ 1000 nM | – | Nc1ccnc(NC(=O)[C@H]2O[C@@H](n3cc(-n4cccn4)c4c(N)ncnc43)C[C@@H]2O)c1 [Compound I-18]
– | – | 100 to 1000 nM | Cn1ccc(-c2cn([C@@H]3O[C@H](C(=O)Nc4ccc5ccccc5c4)[C@@H](O)[C@H]3O)c3ncnc(N)c23)n1 [Compound I-114]
– | – | 100 to 1000 nM | Cn1ccc(-c2cn([C@@H]3O[C@H](C(=O)NC(Cc4ccccc4)c4ccccc4)[C@@H](O)[C@H]3O)c3ncnc(N)c23)n1 (some centres unmarked) [Compound I-115]
– | – | 100 to 1000 nM | Cn1ccc(-c2cn([C@@H]3O[C@H](C(=O)NCCc4ccc(-c5ccccc5)cc4)[C@@H](O)[C@H]3O)c3ncnc(N)c23)n1 [Compound I-116]
– | – | 100 to 1000 nM | Cc1cc(F)ccc1NC(=O)[C@H]1O[C@@H](n2cc(-c3ccn(C)n3)c3c(N)ncnc32)[C@H](O)[C@@H]1O [Compound I-117]
– | – | 100 to 1000 nM | Cn1ccc(-c2cn([C@@H]3O[C@H](C(=O)Nc4cccc5nsnc45)[C@@H](O)[C@H]3O)c3ncnc(N)c23)n1 [Compound I-118]
– | – | 100 to 1000 nM | COc1ccccc1[C@H](C)NC(=O)[C@H]1O[C@@H](n2cc(-c3ccn(C)n3)c3c(N)ncnc32)[C@H](O)[C@@H]1O [Compound I-119]
– | – | 100 to 1000 nM | Cn1ccc(-c2cn([C@@H]3O[C@H](C(=O)NCCC4CCCCC4)[C@@H](O)[C@H]3O)c3ncnc(N)c23)n1 [Compound I-120]

IC50 (METTL3/METTL14; Table 3) | IC50 (PRMT5-MEP50) | IC50 (METTL3/METTL14; Table 4) | Structure (SMILES)
– | – | 100 to 1000 nM | Cn1ccc(-c2cn([C@@H]3O[C@H](C(=O)NCc4ccccc4-n4cccn4)[C@@H](O)[C@H]3O)c3ncnc(N)c23)n1 [Compound I-121]
– | – | 100 to 1000 nM | Cn1ccc(-c2cn([C@@H]3O[C@H](C(=O)Nc4ccncc4Cl)[C@@H](O)[C@H]3O)c3ncnc(N)c23)n1 [Compound I-122]
– | – | 100 to 1000 nM | Cn1ccc(-c2cn([C@@H]3O[C@H](C(=O)Nc4ccc5c(c4)NC(=O)CC5)[C@@H](O)[C@H]3O)c3ncnc(N)c23)n1 [Compound I-123]
– | – | 100 to 1000 nM | Cn1ccc(-c2cn([C@@H]3O[C@H](C(=O)Nc4ccc5c(c4)OCCCO5)[C@@H](O)[C@H]3O)c3ncnc(N)c23)n1 [Compound I-124]
– | – | 100 to 1000 nM | Cn1ccc(-c2cn([C@@H]3O[C@H](C(=O)Nc4ccc(CN5CCS(=O)(=O)CC5)cc4)[C@@H](O)[C@H]3O)c3ncnc(N)c23)n1 [Compound I-125]
– | – | 100 to 1000 nM | Cn1ccc(-c2cn([C@@H]3O[C@H](C(=O)NC4Cc5ccccc5C4)[C@@H](O)[C@H]3O)c3ncnc(N)c23)n1 [Compound I-126]
– | – | 100 to 1000 nM | CN1CCN(c2ccc(NC(=O)[C@H]3O[C@@H](n4cc(-c5ccn(C)n5)c5c(N)ncnc54)[C@H](O)[C@@H]3O)nc2)CC1 [Compound I-127]
– | – | 100 to 1000 nM | Cn1ccc(-c2cn([C@@H]3O[C@H](C(=O)NCCCN4CCCC4=O)[C@@H](O)[C@H]3O)c3ncnc(N)c23)n1 [Compound I-129]
– | – | 100 to 1000 nM | CC(=O)Nc1ccccc1NC(=O)[C@H]1O[C@@H](n2cc(-c3ccn(C)n3)c3c(N)ncnc32)[C@H](O)[C@@H]1O [Compound I-130]
– | – | 100 to 1000 nM | Cn1ccc(-c2cn([C@@H]3O[C@H](C(=O)NCc4ccc5ccccc5c4)[C@@H](O)[C@H]3O)c3ncnc(N)c23)n1 [Compound I-131]
– | – | 100 to 1000 nM | Cn1ccc(-c2cn([C@@H]3O[C@H](C(=O)Nc4ccc(OC(F)F)cc4)[C@@H](O)[C@H]3O)c3ncnc(N)c23)n1 [Compound I-132]
– | – | 100 to 1000 nM | Cn1ccc(-c2cn([C@@H]3O[C@H](C(=O)NCCc4ccccc4Cl)[C@@H](O)[C@H]3O)c3ncnc(N)c23)n1 [Compound I-133]
– | – | 100 to 1000 nM | Cn1ccc(-c2cn([C@@H]3O[C@H](C(=O)NCCc4ccc5ccccc5c4)[C@@H](O)[C@H]3O)c3ncnc(N)c23)n1 [Compound I-134]
– | – | 100 to 1000 nM | Cn1ccc(-c2cn([C@@H]3O[C@H](C(=O)Nc4ccc(C(=O)N5CCCCC5)cc4)[C@@H](O)[C@H]3O)c3ncnc(N)c23)n1 [Compound I-135]
– | – | 100 to 1000 nM | CNC(=O)c1ccc(NC(=O)[C@H]2O[C@@H](n3cc(-c4ccn(C)n4)c4c(N)ncnc43)[C@H](O)[C@@H]2O)cc1 [Compound I-136]
– | – | 100 to 1000 nM | CC(CCc1ccccc1)NC(=O)[C@H]1O[C@@H](n2cc(-c3ccn(C)n3)c3c(N)ncnc32)[C@H](O)[C@@H]1O (some centres unmarked) [Compound I-137]
– | – | 100 to 1000 nM | Cn1ccc(-c2cn([C@@H]3O[C@H](C(=O)Nc4ccc(-n5cnnn5)cc4)[C@@H](O)[C@H]3O)c3ncnc(N)c23)n1 [Compound I-138]
– | – | 100 to 1000 nM | Cn1ccc(-c2cn([C@@H]3O[C@H](C(=O)Nc4ccc(OCCN5CCOCC5)cc4)[C@@H](O)[C@H]3O)c3ncnc(N)c23)n1 [Compound I-139]
– | – | 10 to 100 nM | COc1ccc(NC(=O)[C@H]2O[C@@H](n3cc(-c4ccn(C)n4)c4c(N)ncnc43)[C@H](O)[C@@H]2O)cc1Cl [Compound I-140]
– | – | 10 to 100 nM | Cc1nc2cc(NC(=O)[C@H]3O[C@@H](n4cc(-c5ccn(C)n5)c5c(N)ncnc54)[C@H](O)[C@@H]3O)ccc2o1 [Compound I-141]
